The values below come from PubChem BioAssay (NCI).

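Cultured in 96-well plates, cells were exposed to test compound for 48 hours across five concentrations. At the TGI there is no net growth.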

Test systems include T-47D breast; SNB-19 CNS; OVCAR-5 ovarian; EKVX NSCLC; HT29 colon; SF-268 CNS; HL-60(TB) leukemia; NCI-H460 lung; U251 CNS; UACC-62 melanoma.
Test in all cases: DTP human tumour cell line panel, 48 h

Broadly, the TGI is the concentration giving total growth inhibition. A higher TGI goes with less potent growth arrest. With `Nc1nc(Cl)cc(NCC2(O)CC2)n1`, the TGI in the test with T-47D breast, with SNB-19 CNS, with OVCAR-5 ovarian, in the test on EKVX NSCLC, in the test with HT29 colon and in the test with SF-268 CNS was greater than 100 µM each time. For the same molecule, the TGI with HL-60(TB) leukemia, in the test on NCI-H460 lung, in the test on U251 CNS and in the test on UACC-62 melanoma was greater than 100 µM each time.

`COc1ccc(Nc2nc(N)c(C(=O)c3c[nH]c4ccccc34)s2)cc1`: the TGI was greater than 88.3 µM in the test on T-47D breast; greater than 100 µM in the test with SNB-19 CNS; greater than 80.5 µM in the test on OVCAR-5 ovarian; greater than 100 µM in the test on EKVX NSCLC; 4.57 µM with HT29 colon; greater than 100 µM in the test on SF-268 CNS. Moreover, the TGI in the test with HL-60(TB) leukemia was 14 µM; with NCI-H460 lung, 6.83 µM; in the test on U251 CNS, greater than 100 µM; in the test on UACC-62 melanoma it was greater than 100 µM.

`Cc1cc(C)c(S(=O)(=O)N(CCCN)OCCCON(CCCN)S(=O)(=O)c2c(C)cc(C)cc2C)c(C)c1`: the TGI in the test on T-47D breast stood at 3.36 µM; in the test with SNB-19 CNS it was 3.17 µM; in the test on OVCAR-5 ovarian, 5.86 µM; with EKVX NSCLC, 19.4 µM; with HT29 colon, 3.22 µM; in the test with SF-268 CNS it was 2.8 µM. The TGI with HL-60(TB) leukemia was determined as 5.64 µM; with NCI-H460 lung it was 3.18 µM; with U251 CNS, 3.08 µM; with UACC-62 melanoma, 6.09 µM.

On to `C=C1C(OC2O[C@@H]3O[C@@]4(C)CC[C@H]5[C@H](C)CC[C@@H](C2=C)[C@@]35O4)O[C@@H]2O[C@@]3(C)CC[C@H]4[C@H](C)CC[C@@H]1[C@@]24O3` (stereo not given in full), for which the TGI in the test on T-47D breast, in the test on SNB-19 CNS, in the test with OVCAR-5 ovarian, with EKVX NSCLC, in the test with HT29 colon and in the test with SF-268 CNS was greater than 50 µM throughout. Also, the TGI in the test on HL-60(TB) leukemia, in the test with NCI-H460 lung, with U251 CNS and with UACC-62 melanoma was greater than 50 µM each time.

With `O=C1C=CC(=O)c2c(O)c(N3CCC[C@H]3CO)c(Cl)c(O)c21`, the TGI in the test on T-47D breast is 4.57 µM; in the test on SNB-19 CNS, greater than 10 µM; with OVCAR-5 ovarian, greater than 10 µM; in the test on EKVX NSCLC it was greater than 10 µM; in the test with HT29 colon, greater than 10 µM; in the test with SF-268 CNS, greater than 10 µM. In addition, the TGI in the test on HL-60(TB) leukemia was 0.249 µM; in the test with NCI-H460 lung, greater than 10 µM; with U251 CNS, greater than 10 µM; with UACC-62 melanoma, 4.88 µM.

For `COC(=O)Cc1ccc2c(cnn2-c2ccccc2)c1OC`, the TGI in the test with T-47D breast, in the test with SNB-19 CNS, in the test on OVCAR-5 ovarian, with EKVX NSCLC, in the test on HT29 colon and in the test on SF-268 CNS was greater than 10 µM throughout. Further, the TGI in the test with HL-60(TB) leukemia, in the test with NCI-H460 lung, in the test on U251 CNS and with UACC-62 melanoma was greater than 10 µM each time.

In the case of `O=C1NC2CCCCC2N=C1CC(=O)c1ccc(Br)cc1` (stereo not given), the TGI in the test with T-47D breast was greater than 100 µM; with SNB-19 CNS it was greater than 100 µM; in the test on OVCAR-5 ovarian it was greater than 100 µM; in the test on EKVX NSCLC, 93.8 µM; in the test on HT29 colon, greater than 100 µM; with SF-268 CNS it was greater than 100 µM. For the same molecule, the TGI in the test on HL-60(TB) leukemia, in the test on NCI-H460 lung, in the test with U251 CNS and in the test with UACC-62 melanoma was greater than 100 µM in each case.

With `CN(C)CC1CCC/C(=C\c2ccc(OC(=O)c3ccc(Cl)cc3)cc2)C1=O` (stereo not given), the TGI with T-47D breast came to 2.21 µM; with SNB-19 CNS, 13.7 µM; in the test on OVCAR-5 ovarian, 5.95 µM; in the test with EKVX NSCLC, 6.16 µM; in the test with HT29 colon, 4.1 µM; with SF-268 CNS, 9.07 µM. Moreover, the TGI with HL-60(TB) leukemia is 11.9 µM; in the test with NCI-H460 lung, 17.5 µM; in the test with U251 CNS it was 3.08 µM; with UACC-62 melanoma it was 13.4 µM.

As for `O=C(/C=C/C(=O)N1CCCC1)N1CCCC1`, the TGI in the test on T-47D breast, in the test on SNB-19 CNS, in the test on OVCAR-5 ovarian, in the test on EKVX NSCLC, with HT29 colon and with SF-268 CNS was greater than 100 µM each time. Besides, the TGI with HL-60(TB) leukemia, in the test with NCI-H460 lung, in the test with U251 CNS and with UACC-62 melanoma was greater than 100 µM each time.

For the molecule `COc1ccc(/C=c2\s/c(=C3/SC(=S)N(c4ccccc4)C3=O)n(-c3ccccc3)c2=O)cc1`, the TGI with T-47D breast is greater than 100 µM; in the test on SNB-19 CNS, greater than 100 µM; in the test on OVCAR-5 ovarian, greater than 100 µM; in the test on EKVX NSCLC it was greater than 100 µM; in the test on HT29 colon, greater than 100 µM; in the test with SF-268 CNS it was 26.9 µM. In addition, the TGI in the test on HL-60(TB) leukemia, with NCI-H460 lung, in the test on U251 CNS and in the test on UACC-62 melanoma was greater than 100 µM each time.

`CCn1c2ccc(C(=O)CCCN3CCCCC3)cc2c2cc(C(=O)CCCN3CCCCC3)ccc21`: the TGI in the test on T-47D breast is 49.9 µM; with SNB-19 CNS it was 10.6 µM; in the test with OVCAR-5 ovarian it was 22.8 µM; with EKVX NSCLC, 15.8 µM; in the test with HT29 colon, 4.2 µM; in the test on SF-268 CNS, 18.6 µM. The TGI in the test on HL-60(TB) leukemia is greater than 100 µM; with NCI-H460 lung, 3.12 µM; with U251 CNS, 4.73 µM; in the test on UACC-62 melanoma, 38.8 µM.

With `CCCCSc1nsc(N(C(=O)c2ccccc2)C(=O)c2ccccc2)n1`, the TGI with T-47D breast was greater than 100 µM; with SNB-19 CNS, greater than 100 µM; in the test on OVCAR-5 ovarian it was 89.4 µM; in the test on EKVX NSCLC it was 77.4 µM; in the test with HT29 colon, 82.5 µM; in the test with SF-268 CNS, greater than 100 µM. For the same molecule, the TGI is 74 µM in the test on HL-60(TB) leukemia, 76.9 µM with NCI-H460 lung, greater than 100 µM in the test on U251 CNS and 60.1 µM with UACC-62 melanoma.

In the case of `O=c1[nH]c2nc3ccccc3nc2[nH]c1=O`, the TGI in the test on T-47D breast, with SNB-19 CNS, in the test on OVCAR-5 ovarian, with EKVX NSCLC, with HT29 colon and with SF-268 CNS was greater than 100 µM each time. Moreover, the TGI in the test on HL-60(TB) leukemia, in the test on NCI-H460 lung, in the test with U251 CNS and with UACC-62 melanoma was greater than 100 µM throughout.

For `COc1ccc2nc(/C(N)=C\C#N)ccc2c1`, the TGI in the test on T-47D breast was 76.2 µM; in the test with SNB-19 CNS, greater than 100 µM; with OVCAR-5 ovarian, greater than 100 µM; with EKVX NSCLC, greater than 100 µM; in the test with HT29 colon, greater than 100 µM; in the test with SF-268 CNS it was greater than 100 µM. The TGI with HL-60(TB) leukemia was 46.5 µM; with NCI-H460 lung, greater than 100 µM; with U251 CNS it was greater than 100 µM; in the test on UACC-62 melanoma, greater than 100 µM.
